# Laboratory results published in US20060148772A1, “Combination” (priority 2004, published 2006).
# “Also recorded” adds a separate entry of the source.
# How the values were obtained:
# ZR75.1 tumour xenografts = assay: Growth of ZR75.1 tumour xenografts in vivo; design: species or system Mice; conditions: ZR75.1A3 xenografts under androstenedione, p.o.
# Method: Experimental study groups consisted of 6 animals. All tumours were grown to approximately 7 mm diameter under E2 support. Once the tumours were established, the E2 pellet was removed and replaced with androstenedione. Mice were then randomised into cages and treated as described below. Tumours were assessed twice weekly by bi-dimensional caliper measurements and volume calculated based on the volume of a sphere 4/3 […]. Data was expressed as fold change in tumour volume compared to day zero treatment for each treatment group.
# Effect of 6-[4-(4-ethyl-piperazin-1-ylmethyl)-phenyl]-7H-pyrrolo[2,3-d]pyrimidin-4-yl}-(1-[phenyl-ethyl)-amine in combination with endocrine therapy was investigated in ZR75.1A3.
# Groups: • (i) Vehicle (10% N-methyl-pyrollidone (NMP)/90% polyethylene glycol (PEG 300)).
# BT474 A3 = assay: Cell cycle FACS analysis (propridium iodide), BT474 A3; type: cell-based, Human; conditions: BT474 A3, androstenedione, 72 hours
# Method: (§1) Cell lines were depleted of steroid for 3 days in DCC medium then seeded in 10 cm dishes at a density of 1×10^6 cells. After 48 hours, appropriate monolayers were pretreated with 6-[4-(4-ethyl-piperazin-1-ylmethyl)-phenyl]-7H-pyrrolo[2,3-d]pyrimidin-4-yl}-(1-[phenyl-ethyl)-amine for 1 hour in DCC medium. […] In the case of MCF7 and ZR75.1 the 6-[4-(4-ethyl-piperazin-1-ylmethyl)-phenyl]-7H-pyrrolo[2,3-d]pyrimidin-4-yl}-(1-[phenyl-ethyl)-amine concentration was increased to 5 μM. Cell were treated for 72 hours then fixed with 70% ethanol and stained with Propridium iodide. FACS analysis was used to establish the effect of the drug combinations on cell cycle.
# SKBR3 (ER−, HER2++) = assay: Proliferation assay, SKBR3 clones; type: cell-based; conditions: Homo sapiens, SK-BR-3; effect on proliferation, fold change compared to DCC medium alone
# Method: (§2) Human breast cancer cell lines with varying expression of ER and HER2 were engineered to express aromatase. The cell lines were MCF7 (ER+,HER2−), ZR75.1 (ER+,HER2+), BT474 (ER+, HER2++) and SKBR3 (ER−, HER2++).
# (§3) Proliferation assays were carried out as follows. The target cell lines listed above were cultured in phenol red-free RPMI 1640 medium containing 10% charcoal stripped foetal calf serum and 10[…]g.ml insulin (DCC medium), with daily changes for 3 days. The cell lines were then seeded in to 12-well plates at an appropriate density (MCF7 1×10^4/well, ZR75.1 2×10^4/well, BT474 2×10^4/well, SKBR3 1×10^4/well). After 24-48 hours, the cell monolayers were treated with increasing concentrations of androstenedione or E2. […] Drug treatments were changed daily over a period of 6 days. Cell number was determined using a Z1 Coulter Counter (Beckman Coulter, UK). With the threshold set at 15 μm diameter, 75% the average 20 μm size of MCF7 cells. Cell counts were averaged for each triplicate treatment and normalised against the control sample to give the average fold-difference in cell growth.
# total or pHER2 = assay: Western blot of HER2 signal transduction: HER2; type: cell-based, Human; conditions: 0.1, 1 and 10 μM, 8 hours
# Method: (§4) Western Blot analysis of the effect of 6-[4-(4-ethyl-piperazin-1-ylmethyl)-phenyl]-7H-pyrrolo[2,3-d]pyrimidin-4-yl}-(1-[phenyl-ethyl)-amine on HER2 signal transduction.
# (§5) Target cell lines were stripped of steroid for 3 days in DCC medium prior to seeding at a density of 1.5-2×10^6 cells per 10 cm dish. Monolayers were left to acclimatize for 24 hours prior to treatment with 0, 0.1, 1 and 10 μM 6-[4-(4-ethyl-piperazin-1-ylmethyl)-phenyl]-7H-pyrrolo[2,3-d]pyrimidin-4-yl}-(1-[phenyl-ethyl)-amine in DCC medium for 8 hours. […] The protein concentration was then quantified using BioRad protein assay kit (Bio Rad, UK). […] Filters were blocked (10 mM Tris-HCl, pH 8.3, 150 mM NaCl containing 4% milk powder) washed twice in PBS containing 0.025% Tween-20 and probed with specific antibodies (p HER2 and total HER2 (Upstate, UK), pAKT, total AKT, pMAPK and total MAPK (Cell signaling, UK) and HRP-conjugated secondary antibody (Amersham Pharmacia Biotech, UK). The antibodies were diluted 1/1000 in 1.5% bovine serum albumin, 10 mM Tris-HCl, pH 8.3, 150 mM NaCl, 0.025% Tween-20 and 0.01% sodium azide. Immuno complexes were detected using Ultra-Signal chemiluminescence kit (Pierce and Warriner, UK). Chemiluminescence was quantified using Fluro-S and analysed using Quantity One software (BioRad, UK).
# BT474 (ER+, HER2++) = assay: Proliferation assay, aromatase expressing BT474 clones; type: cell-based, Human; conditions: for IC50: Homo sapiens; for proliferation response to increasing doses (fold change): BT474 aromatase clones, versus DCC medium alone (E2, androstenedione) or androstenedione alone (4-OH tamoxifen, letrozole)
# Method: as §2
# as §3, with “cells.” for “cells. Cell counts were averaged for each triplicate treatment and normalised against the control sample to give the average fold-difference in cell growth.”
# [1] = test system: ER-α-mediated transcription; assay: ERα transactivation luciferase reporter assay (pEREtkIIluc); type: cell-based, Human
# Method: ERα transactivation was monitored using a standard reporter construct consisting of two EREs upstream of a minimal thymidine kinase reporter linked to a gene encoding luciferase (pEREtkIIluc). Activity was normalized using a second plasmid consisting of the β-galactosisdase gene downstream of the constitutively active simian virus 40 promoter (SV40)(pCH110). The target cell lines indicated, were cultured in DCC medium as described previously. Cells were then seeded into 24-well plates at a density of 7×10^5 cells/well (MCF7, ZR75.1 and SKBR3). The following day the cells were transfected by lipofectin (Life Technologies, Inc.) at a ratio of 1:2.5 (DNA:lipid) with 0.25 μg of EREIItkluc and 0.25 μg of pCH110 for 4 hours in serum-free phenol red-free RPMI 1640 medium. The cells were subsequently placed in DCC medium and left to recover overnight. BT474 cells were treated similarly but with the exception that cells were seeded at a density of 1×10^5 cells/well and monolayers were transfected by lipofectamine 2000 (Life Technologies, Inc.) at a ratio of 1:2.5 with 0.4 μg pEREtkIIluc and 0.4 μg pCH110 per well for 4 hours. […] After treatment for 24 hours, the luciferase (Promega, UK) and β-galactosidase (Galacton Star, PE Biosystems, UK) activity were measured using a luminometer.
# pAKT = assay: Western blot of HER2 signal transduction: AKT; type: cell-based, Human; conditions: all of the cell lines tested; 0.1, 1 and 10 μM, 8 hours
# Method: as §4, §5
# ZR75.1 (ER+,HER2+) = assay: Proliferation assay, aromatase expressing ZR75.1 clones; type: cell-based, Human; conditions: for IC50: Homo sapiens; for proliferation response to increasing doses (fold change): ZR75.1 aromatase clones, versus DCC medium alone (E2, androstenedione) or androstenedione alone (4-OH tamoxifen, letrozole)
# Method: as §2
# as §3, with “cells.” for “cells. Cell counts were averaged for each triplicate treatment and normalised against the control sample to give the average fold-difference in cell growth.”
# MCF7 (ER+,HER2−) = assay: Proliferation assay, aromatase expressing MCF7 clones; type: cell-based, Human; conditions: for IC50: Homo sapiens; for proliferation response to increasing doses (fold change): MCF7 aromatase clones, versus DCC medium alone (E2, androstenedione) or androstenedione alone (4-OH tamoxifen, letrozole)
# Method: as §2
# as §3, with “cells.” for “cells. Cell counts were averaged for each triplicate treatment and normalised against the control sample to give the average fold-difference in cell growth.”
# pMAPK = assay: Western blot of HER2 signal transduction: MAPK; type: cell-based, Human; conditions: 0.1, 1 and 10 μM, 8 hours
# Method: as §4, §5
# MCF7A2 cell line = assay: Cell cycle FACS analysis (propridium iodide), MCF7A2; type: cell-based, Human; conditions: MCF7A2, androstenedione, 72 hours
# Method: as §1
structure (smiles),measurement,setting,value
"CCN1CCN(Cc2ccc(-c3cc4c(N[C@H](C)c5ccccc5)ncnc4[nH]3)cc2)CC1 [{6-[4-(4-ethyl-piperazin-1-ylmethyl)-phenyl]-7H-pyrrolo[2,3-d]pyrimidin-4-yl}-(1-[phenyl-ethyl)-amine]",tumour growth / tumour volume (fold change compared to day zero),ZR75.1 tumour xenografts,modest inhibitory effect on tumour growth in the magnitude of that seen with tamoxifen
same,number of cells in G0/G1,BT474 A3,more effective than tamoxifen at arresting cells in G0/G1
same,IC50,"SKBR3 (ER−, HER2++)",1.5 µM
same,effect on total or pHER2,total or pHER2,no obvious effect on total or pHER2
same,IC50,"BT474 (ER+, HER2++); BT-474, effect on proliferation, fold change compared to DCC medium alone",0.5 µM
same,ER-α-mediated transcription,"[1]; cell line BT474 (ER+, HER2++), basal and AND-induced",dose dependent decrease
same,ER-mediated transcription,[1]; cell lines expressing low levels of HER2 (MCF7 and ZR75.1),little effect
same,effect on pAKT,pAKT,decreased in a dose dependent manner
same,IC50,"ZR75.1 (ER+,HER2+); ZR-75-1, effect on proliferation, fold change compared to DCC medium alone",2 to 5 µM
same,IC50,"MCF7 (ER+,HER2−); MCF7, effect on proliferation, fold change compared to DCC medium alone",5 to 10 µM
same,effect on pMAPK,pMAPK; MCF7 cells,no effect on MCF7 cells
same,effect on pMAPK,"pMAPK; ZR75.1, BT474 and SKBR3 cell lines",decrease of pMAPK
same,number of cells in G0/G1,MCF7A2 cell line,increase in the number of cells in G0/G1
C[C@]12CC[C@@H]3c4ccc(O)cc4CC[C@H]3[C@@H]1CC[C@@H]2O [E2],proliferation response to increasing doses (fold change),"BT474 (ER+, HER2++)",dose dependent increase in proliferation
same,ER-α-mediated transcription,[1]; ER+ cell lines,increased ER-[…]-mediated transcription in a dose-dependent manner
same,proliferation response to increasing doses (fold change),"ZR75.1 (ER+,HER2+)",dose dependent increase in proliferation
same,proliferation response to increasing doses (fold change),"MCF7 (ER+,HER2−)",dose dependent increase in proliferation
CC/C(=C(\c1ccccc1)c1ccc(OCCN(C)C)cc1)c1ccccc1 [Tamoxifen],ER-α-mediated transcription,[1]; ER+ cell lines,inhibited
same,number of cells in G0/G1,MCF7A2 cell line,increase in the number of cells in G0/G1
CC/C(=C(\c1ccc(O)cc1)c1ccc(OCCN(C)C)cc1)c1ccccc1 [4-OH tamoxifen],tumour growth / tumour volume (fold change compared to day zero),ZR75.1 tumour xenografts,as affective as AEE788
same,proliferation response to increasing doses (fold change),"BT474 (ER+, HER2++)",dose dependent decrease in proliferation
same,proliferation response to increasing doses (fold change),"ZR75.1 (ER+,HER2+)",dose dependent decrease in proliferation
same,proliferation response to increasing doses (fold change),"MCF7 (ER+,HER2−)",dose dependent decrease in proliferation
"N#Cc1ccc(C(c2ccc(C#N)cc2)n2cncn2)cc1 [Letrozole, 4-[α-(4-cyanophenyl)-1-(1,2,4-triazolyl)methyl]-benzonitrile]",tumour growth / tumour volume (fold change compared to day zero),ZR75.1 tumour xenografts,markedly inhibited; also recorded: more effective than 4-OH tamoxifen alone or in combination with AEE788
same,number of cells in G0/G1,BT474 A3,more effective than tamoxifen at arresting cells in G0/G1
same,proliferation response to increasing doses (fold change),"BT474 (ER+, HER2++)",dose dependent decrease in proliferation
same,IC50,"BT474 (ER+, HER2++); BT-474, 144 h, inhibition of proliferation, aromatase expressing clones, androstenedione, 6 days",0.005 µM
same,ER-α-mediated transcription,[1]; ER+ cell lines,inhibited
same,IC50,"ZR75.1 (ER+,HER2+); ZR-75-1, 144 h, inhibition of proliferation, aromatase expressing clones, androstenedione, 6 days",0.001 µM
same,proliferation response to increasing doses (fold change),"ZR75.1 (ER+,HER2+)",dose dependent decrease in proliferation
same,IC50,"MCF7 (ER+,HER2−); MCF7, 144 h, inhibition of proliferation, aromatase expressing clones, androstenedione, 6 days",0.005 µM
same,proliferation response to increasing doses (fold change),"MCF7 (ER+,HER2−)",dose dependent decrease in proliferation
same,number of cells in G0/G1,MCF7A2 cell line,increase in the number of cells in G0/G1
C[C@]12CCC(=O)C=C1CC[C@@H]1[C@@H]2CC[C@]2(C)C(=O)CC[C@@H]12 [androstenedione],proliferation response to increasing doses (fold change),"BT474 (ER+, HER2++)",dose dependent increase in proliferation
same,ER-α-mediated transcription,[1]; ER+ cell lines,increased ER-[…]-mediated transcription in a dose-dependent manner
same,proliferation response to increasing doses (fold change),"ZR75.1 (ER+,HER2+)",dose dependent increase in proliferation
same,proliferation response to increasing doses (fold change),"MCF7 (ER+,HER2−)",dose dependent increase in proliferation
